“Also recorded” adds a separate entry of the source.
Tests used:
[1] = system: Alveolus-Chip epithelium/endothelium barrier; test: Barrier function assay (fluorescent dextran / Lucifer Yellow leakage) in Open-Top Alveolus-Chip; assay type: cell-based, human; settings: for preventive effect on barrier leakage: co-administered with H2O2 (10 mM), 50 nM Bardoxolone, 0.01-1.0 μM GSK, 2 μM JQ1; for reversibility of barrier breakdown after removal of stressor: additional 2 days in fresh medium
Text: We studied interaction between different chip compartments by perturbating the system with biological and chemical stressors such as LPS, and H2O2 which are known to induce a reversible disruption of the cellular monolayer after acute administration both in vivo and in vitro. […] The presence of a strong barrier is indirectly confirmed by the presence of continuous pattern of E-cad and VE-cad in the monolayer of Alveolar epithelial and endothelial cell, respectively.
(§1) Given the limited availability of in vitro models that can closely mimic human alveolar epithelium function and/or its disease states, we explored whether a microfluidic Alveolus-Chip lined with the primary alveolar epithelial cells on an artificial lung stroma with embedded primary lung fibroblasts and pulmonary microvascular endothelial cells would model a lung injury state. To test this, we exposed the Alveolus-Chips to an acute damage generated by exposure to H2O2 under continuous infusion through the epithelium top channel, similarly to as it is […] administered in mice.
Air-Liquid interface was replaced by phenol red free MEM (GIBCO: 51200-038) and medium in the bottom fluidical spiraled channel substituted by one containing 1 mg/ml Lucifer Yellow CH, Lithium Salt (ThermoFisher: L453) or 0.1 mg/ml Dextran, Fluorescein, 3000 MW, Anionic, Lysine Fixable (ThermoFisher: D3306). Leakage of the fluorescent probe from the lumen of the spiraled channel to the epithelial compartment was collected from the outlet reservoirs after indicated hours of perfusion. The fluorescence intensity was measured with a 96-well fluorimeter at excitation/emission indicated by the manufacturer.

[2] = system: cellular monolayer barrier; test: Barrier function in static transwell; assay type: cell-based; settings: doses up to 100 ng/ml LPS, 10 mM H2O2
IL-6, IL-8 and MCP-1 = test: Cytokine secretion in chip medium effluent (ELISA); assay type: cell-based, human; settings: 24 hours of exposure
Text: We studied interaction between different chip compartments by perturbating the system with biological and chemical stressors such as LPS, and H2O2 which are known to induce a reversible disruption of the cellular monolayer after acute administration both in vivo and in vitro. […] To assess changes in the barrier function following the exposure to these insults, we added a fluorescent dye (e.g. […]—Dextran-FITC) to the endothelial compartment, which is under control condition confirmed that the endothelium and epithelium form a barrier to the dies. The presence of a strong barrier is also indirectly confirmed by the presence of continuous pattern of E-cad and VE-cad in the monolayer of Alveolar epithelial and endothelial cell, respectively. […] We also decoupled the effect of single biological component to the inflammatory response by selectively removing them from the system in an integrated matrix. […] In fact, the recorded value of IL-6 and IL-8 is not the algebraic sum of the concentration of the factors released by the single cellular components. […]
The amount of Surfactant B and C was collected from chip epithelial cell surface by PBS washing and measured by Human SFTPB/Surfactant Protein B ELISA Kit (Sandwich ELISA)—LS-F4439 and Human SFTPC/Surfactant Protein C ELISA Kit (Sandwich ELISA)—LS-F12438 (LifeSpanBioScience) following the manufacturer's protocol. The color reaction was measured at 450 nm with a photometer (specification). […] Similarly, the presence of IL-6, IL-8 and MPC in medium samples was detected by Human TLR-induced Cytokines II: Microbial-induced Multi-Analyte ELISArray Kit (MEH-008A) (Qiogen) following the manufacturer's protocol. The color reaction was measured at 450 nm with a photometer (specification). […]

E-Cadherin = E-Cadherin / phalloidin imaging of Alveolus-Chip epithelium after H2O2; assay type: cell-based, human
Experimental: In one embodiment, a method is used for testing the effects of activating the Nrf2 system on pathological cell responses using an activating treatment, such as H2O2; LPS, etc. […] Control left panel, H2O2 (10 mM) (48 h) treatment, right panel. E-cadherin (green) actin (pink) and nuclei blue.
as §1
Open-Top Organ-Chips were fixed in 10% neutral buffered formalin. Endothelial cells were stained inside the chip by performinutesg the immunofluorescence steps described below directly inside the microfluidic channel. Stroma equivalents were stained as described by the step below inside the chip or alternatively extracted from the chip and processed for immunohistochemistry analysis. […]

[3] = system: human airway epithelium on-chip; settings: cited from earlier work
[4] = system: alpha smooth muscle Actin (alpha-SMA); test: TGF-β treatment of open top Alveolar-Chip (EMT markers, immunostaining / qRT-PCR); assay type: cell-based, human; settings: TGF-β up to 72 hours, versus vehicle
Text: E-cadherin is shown in pink.

Q: For CC1(C)CC[C@]2(C(=O)O)CC[C@]3(C)[C@H](C(=O)C=C4[C@@]5(C)C=C(C#N)C(=O)C(C)(C)[C@@H]5CC[C@]43C)[C@@H]2C1 [Bardoxolone, Bardoxolone (methyl)], which “preventive effect on barrier leakage” value [1] is on record?
A: significant preventive effect on the barrier leakage

Q: For OO [H2O2], which “effect of stressor on barrier function” value ([1]; LPS 10 ng/ml and/or H2O2 10 mM) is on record?
A: causes barrier breakdown and disruption of intracellular junction; also recorded: significant loss of barrier function

Q: What about the “reversibility of barrier breakdown after removal of stressor” value [1] of the same molecule?
A: barrier breakdown in our chip was reversable

Q: What about the “loss of barrier function” value [2] of the same molecule?
A: dose dependent loss of barrier function

Q: What about the “release of IL-6, IL-8 and MCP-1 in medium effluent” value (IL-6, IL-8 and MCP-1) of the same molecule?
A: no apparent correlation

Q: And the E-Cadherin distribution (E-Cadherin; H2O2 10 mM, 48 h)?
A: induces redistribution of E-Cadherin; also recorded: pronounced loss and re-distribution of E-Cadherin

Q: And the “pneumocyte monolayer integrity (microscopy)” value (E-Cadherin; H2O2 continuous infusion through epithelium top channel)?
A: disruption of the pneumocyte monolayer with partial cell detachment

Q: For Cc1sc2c(c1C)C(c1ccc(Cl)cc1)=N[C@@H](CC(=O)OC(C)(C)C)c1nnc(C)n1-2 [JQ1, thienotriazolodiazepine], which “preventive effect on barrier leakage” value [1] is on record?
A: significant preventive effect on the barrier leakage

Q: With C[C@@H]1CCN(C(=O)CC#N)C[C@@H]1N(C)c1ncnc2[nH]ccc12 [Tofacitinib] as the molecule, how does the “effect on IL-13 induced phenotype” value [3] read?
A: suppressed

Q: With “IL-13: cytokine perfused to mimic a Th2 enriched microenvironment” as the molecule, how does the “airway phenotype on IL-13 perfusion through the vascular channel” value [3] read?
A: significant airway remodeling with goblet cells hyperplasia

Q: Which results are given for “TGF-β: transforming growth factor beta1, cytokine inducing epithelial to mesenchymal transition”?
A: reversibility of barrier breakdown after removal of stressor [1]: barrier breakdown in our chip was reversable; ICAM-1 staining [4]: lack of ICAM-1; alpha-SMA induction [4]: induction of alpha smooth muscle Actin (alpha-SMA)

Source: patent US12098352B2, “Stem cell-based lung-on-chip models” (EMULATE, INC., priority 2018, dated 2024)
